Assay results: patent US8987198B2, “Compositions and methods for treating obesity and diabetes” (The Administrators of the Tulane Educational Fund, priority 2009, dated 2015)

Columns and labels:
[1] = tested on: 3T3-L1 differentiated adipocytes; assay: [3H]2-deoxyglucose uptake assay in 3T3-L1 adipocytes; format: cell-based, murine; details: for glucose uptake after addition of insulin: 0.3 nM insulin + glyceollin; for glucose uptake after addition of insulin / glucose uptake in the absence of insulin: FIG. 17; for glucose uptake in the absence of insulin: 24 h KRH, then 30 min exposure; for insulin-mediated glucose uptake after pre-incubation with glyceollins: 24 hours pre-incubation, 30 min insulin, FIG. 15
Procedure: Krebs-Ringers-Hepes (KRH) buffer was prepared with 200 mL H2O, 300 μL of 1 M CaCl2, 300 μL of 1.2 M MgSO4, 300 μL of 1 M KH2PO4, 3 mL of 0.14 M KCl, 6 mL of 1 M HEPES in 1.2 M NaHCO3, and 15 mL of 2.6 M NaCl. […] Insulin (MW=5808) stock solution (100 μM) was prepared by dissolving 2.90 mg insulin into 5 mL of 0.01 N HCl. To make working solutions: the stock solution was diluted 1:10 by adding 100 μL stock to 900 μL KRH buffer, giving solution A (10 μM); solution A was diluted by adding 400 μL of solution A to 932 μL KRH buffer, giving solution B (3 μM); solution A was diluted by adding 100 μL of solution A to 900 μL KRH buffer, giving solution C (1 μM); solution B was diluted by adding 100 μL of solution B to 900 μL KRH buffer, giving solution D (300 nM); solution C was diluted by adding 100 μL of solution C to 900 μL KRH buffer, giving solution E (100 nM); solution D was diluted by adding 100 μL of solution D to 900 μL KRH buffer, giving solution F (30 nM); solution E was diluted by adding 100 μL of solution E to 900 μL KRH buffer, giving solution G (10 nM); solution F was diluted by adding 100 μL of solution F to 900 μL KRH buffer, giving solution H (3 nM); solution G was diluted by adding 100 μL of solution G to 900 μL KRH buffer, giving solution I (1 nM); and solution H was diluted by adding 100 μL of solution H to 900 μL KRH buffer, giving solution J (0.3 nM). 100 μL of each concentration was added to each well with a final volume in each well of 1000 μL (1:10 dilution when added to cells). […] This stock solution was kept refrigerated. To make working solutions: 80 μL of the stock solution was diluted with 3920 μL KRH buffer, giving solution A (200 μM); solution A was diluted by adding 500 μL of solution A to 335 μL KRH buffer, giving solution B (120 μM); solution A was diluted by adding 1000 μL of solution A to 1000 μL KRH buffer, giving solution C (100 μM); solution A was diluted by adding 1000 μL of solution A to 1500 μL KRH buffer, giving solution D (80 μM); solution A was diluted by adding 1000 μL of solution A to 2330 μL KRH buffer, giving solution E (60 μM); solution D was diluted by adding 1000 μL of solution D to 1000 μL KRH buffer, giving solution F (40 μM); solution F was diluted by adding 1000 μL of solution F to 1000 μL KRH buffer, giving solution G (20 μM); solution G was diluted by adding 1000 μL of solution G to 1000 μL KRH buffer, giving solution H (10 μM); and solution H was diluted by adding 1000 μL of solution H to 1000 μL KRH buffer, giving solution I (5 μM). 100 μL of each concentration was added to each well with a final volume in each well of 1000 μL (1:10 dilution when added to cells). Unless indicated otherwise (see, e.g., EXAMPLES 14 & 15), where the EXAMPLES below refer to glyceollin, a mixture of glyceollins I, II, and III, was used. Cell culture and differentiation of murine 3T3-L1 cells is a well-accepted model for study of adipocyte differentiation, glucose uptake, and insulin action. These cells undergo a program of differentiation manifest by large lipid droplet accumulation when stimulated by the appropriate hormonal cocktail. The adipocytes express markers such as leptin and adiponectin, express Glut 4, and respond to insulin stimulation by increasing glucose uptake, similar to primary adipocytes. For these experiments, frozen preadipocytes were purchased from Zenbio (Research Triangle Park, N.C.). They were thawed at 37° C., diluted with Zenbio Preadipocyte medium, and incubated in 24-well plates at 37° C. in a humidified atmosphere containing 95% air and 5% CO2 until confluent. Signals derived from confluency were allowed by incubating for 2 more days. Preadipocyte medium was replaced with Zenbio Differentiation Medium and the cells were incubated for 3 additional days; that medium was replaced with Zenbio Adipocyte […] medium for about 2 weeks when greater than 95% of the cells appeared filled with large lipid droplets. […]

[2] = tested on: Liver X Receptor in LNCaP Cells; assay: Up-regulation of LXR-responsive genes ABCG1/ABCA1 in LNCaP cells; format: cell-based; details: glyceollin at 5 μM for 48 h
Procedure: LNCaP cells were obtained from the American Type Culture Collection (Manassas, Va.) and maintained in Media A [RPMI 1640 medium with phenol red (Invitrogen, Carlsbad, Calif.), 2 mM L-glutamine (Sigma), 100 U/mL penicillin and 100 μg/mL streptomycin (BioSource International, Camarillo, Calif.) with 10% fetal bovine serum (FBS) (Invitrogen, Carlsbad, Calif.)]. Cells were incubated in the presence of 5% CO2 in air at 37° C.

Molecule | glucose uptake after addition of insulin [1] | glucose uptake in the absence of insulin [1] | insulin-mediated glucose uptake after pre-incubation with glyceollins [1] | further results
insulin [reference compound] | – | – | – | glucose uptake by insulin alone ([1]; 0.2 nM insulin, FIG. 19 column 2): stimulation of glucose uptake
Oc1ccc2c(c1)OC[C@@]1(O)c3ccc(O)cc3O[C@@H]21 [glycinol, reference compound] | – | – | – | glucose uptake after 30 minute exposure to glycinol ([1]; 1 μM and 0.1 μM, absence of insulin, FIG. 16 columns 7 and 8): does not present the same bioactivity as glyceollin; glucose uptake with glycinol ([1]; 5 μM glycinol, 24 h pre-incubation, with or without insulin, FIG. 14): ineffective at stimulating glucose uptake
O=c1c(-c2ccc(O)cc2)coc2cc(O)cc(O)c12 [Genistein, genistein] | – | – | – | fold up-regulation of ABCG1 [2]: 3 fold
CC1(C)C=Cc2c(ccc3c2OC[C@@]2(O)c4ccc(O)cc4O[C@@H]32)O1 [glyceollin I] | further enhanced | can stimulate glucose uptake in the absence of insulin | more effective than glyceollin II | glucose uptake after 30 minute exposure ([1]; 5 μM, cells pre-incubated 24 h with KRH, FIG. 16): stimulate glucose uptake better than glyceollins II and III
C=C(C)[C@@H]1Cc2cc3c(cc2O1)OC[C@@]1(O)c2ccc(O)cc2O[C@@H]31 [glyceollin III] | further enhanced | can stimulate glucose uptake in the absence of insulin | more effective than glyceollin II | –
